This is an account of results in ChEMBL document CHEMBL1134333, “[3H]N-2-(4-(N-benzamido)phenyl)propyl-2-propanesulfonamide: a novel AMPA receptor potentiator and radioligand” (J Med Chem, 2001).

The target of assay [1] is T1, Glutamate receptor ionotropic, AMPA (Rattus norvegicus, UniProt P19490+P19491+P19492+P19493). As to the kind of experiment: Effective concentration of glutamate required to increase specific binding of [3H]6 to rat cerebral cortical membranes.
The target of assay [2] is T1, Glutamate receptor ionotropic, AMPA. As to the kind of experiment: Inhibition of binding to AMPA receptor from rat cerebral cortex. In kind it is tissue-based.
Assay [3] shares this target. As to the kind of experiment: Effective concentration of AMPA required to increase specific binding of [3H]6 to rat cerebral cortical membranes.

For orientation: EC50 means the midpoint of the concentration-response curve. One may read the IC50 as the point on the concentration scale where inhibition reaches its midpoint. As to `CC(CNS(=O)(=O)C(C)C)c1ccc(NC(=O)c2ccccc2)cc1` (centres undefined), the concentration for a half-maximal effect (EC50) in assay [1] turned out to be 31 µM; in assay [3], 5.5 µM. In assay [2], this compound displayed an IC50 of 0.17 µM.
`NS(=O)(=O)c1cc2c(cc1Cl)NC(C1CC3C=CC1C3)NS2(=O)=O` (centres undefined) [CYCLOTHIAZIDE] returned an IC50 in assay [2] of 6.1 µM.
